Tested on: C. albicans 10231
Assay: Skin conditioner impact on antimicrobial efficacy
Type: cell-based, Candida albicans
Conditions: skin conditioner added to prototype composition
Excerpt: FIG. 6 is a bar graph showing the effect on the antimicrobial efficacy (average log reduction of C. albicans 10231) for three prototype antimicrobial compositions sharing all the same ingredients but differing in the amount of added PEG-45 palm kernel glycerides (ranging from 0 to 1.0%) in comparison to a commercial antimicrobial soap (ECOLAB Equi-Soft™ soap).

For PEG-45 palm kernel glycerides, the “impact on the efficacy” value was “negative impact”.

— patent US10799433B2, “Foaming antimicrobial compositions” (S.C. Johnson & Son, Inc., priority 2016, dated 2020)
